Measured values from patent US11530198B2, “Compositions and methods for treating infections” (priority 2016, dated 2022).
Read-outs that look alike come from different tables or passages of the source.

What was measured:
[1] = target: T. cruzi DHFR (tcDHFR) (Trypanosoma cruzi, UniProt Q27793); assay: DHFR inhibition assay (diaphorase/resazurin coupled), T. cruzi DHFR; type: biochemical; settings: hDHFR IC50/tcDHFR IC50
[2] = target: T. gondii DHFR (tgDHFR) (Toxoplasma gondii, UniProt Q07422)
[3] = target: T. brucei DHFR (tbDHFR) (Trypanosoma brucei brucei, UniProt Q27783); assay: DHFR inhibition assay (diaphorase/resazurin coupled), T. brucei DHFR; type: biochemical; settings: for Average DHFR selectivity (h/tb)*-DHFR IC50: hDHFR IC50/tbDHFR IC50
[4] = target: hDHFR (Homo sapiens (Human), UniProt P00374); assay: DHFR inhibition assay (diaphorase/resazurin coupled, fluorescence of resorufin), human DHFR; type: biochemical
Chain of hDHFR (P00374 whole entry): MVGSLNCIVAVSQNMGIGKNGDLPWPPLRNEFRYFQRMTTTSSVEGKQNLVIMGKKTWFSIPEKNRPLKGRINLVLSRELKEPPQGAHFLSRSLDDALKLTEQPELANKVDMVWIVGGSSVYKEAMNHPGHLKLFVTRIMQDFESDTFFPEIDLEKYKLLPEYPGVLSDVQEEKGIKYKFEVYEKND

Row | SMILES | Average DHFR selectivity (h/tg) ([2]; hDHFR IC50/tgDHFR IC50) | also measured
1 | Nc1ncc(N2CCN(c3ccc(F)cc3)CC2)c(N)n1 [Compound 116, 5-(4-(4-fluorophenyl)piperazin-1-yl)pyrimidine-2,4-diamine] |  | Average DHFR selectivity (h/tc) [1]: 100
2 | Nc1ncc(N2CCN(c3cccc(N4CCOCC4)c3)CC2)c(N)n1 [Compound 25, 5-(4-(3-morpholinophenyl)piperazin-1-yl)pyrimidine-2,4-diamine] | 105.15 | 
3 | Nc1ncc(N2CCN(c3cccc(-c4cnc(Cl)nc4)c3)CC2)c(N)n1 [Compound 100, 5-(4-(3-(2-chloropyrimidin-5-yl)phenyl)piperazin-1-yl)pyrimidine-2,4-diamine] | 197.28 | Average DHFR selectivity (h/tb)*-DHFR IC50 [3]: 522
4 | CCc1nc(N)nc(N)c1N1CCN(c2ccc(C)cn2)CC1 [Compound 45, 6-ethyl-5-(4-(5-methylpyridin-2-yl)piperazin-1-yl)pyrimidine-2,4-diamine] | 136.15 | 
5 | Nc1ncc(N2CCN(c3cccc(-c4cnccn4)c3)CC2)c(N)n1 [Compound 104, 5-(4-(3-(pyrazin-2-yl)phenyl)piperazin-1-yl)pyrimidine-2,4-diamine] |  | hDHFR pIC50-DHFR primary assay ([4]; Table 11): 5.88; tgDHFR pIC50-DHFR primary assay [2]: 7.99
6 | CCc1nc(N)nc(N)c1N1CCN(c2ccc(C)cc2)CC1 [Compound 39, 6-ethyl-5-(4-(p-tolyl)piperazin-1-yl)pyrimidine-2,4-diamine] | 144.58 | 
7 | Nc1ncc(N2CCC(c3ccccc3)CC2)c(N)n1 [Compound 15, 5-(4-phenylpiperidin-1-yl)pyrimidine-2,4-diamine] | 25.26 | 
8 | Nc1ncc(N2CCN(c3ccc(C(F)(F)F)cc3)CC2)c(N)n1 [Compound 115, 5-(4-(4-(trifluoromethyl)phenyl)piperazin-1-yl)pyrimidine-2,4-diamine] |  | Average DHFR selectivity (h/tc) [1]: 132
9 | Nc1ncc(N2CCN(c3ccc(Cl)c(Cl)c3)CC2)c(N)n1 [Compound 1, 5-(4-(3,4-dichlorophenyl)piperazin-1-yl)pyrimidine-2,4-diamine] | 5.5 | 
10 | COc1ncccc1-c1cccc(N2CCN(c3cnc(N)nc3N)CC2)c1 [Compound 80, 5-(4-(3-(2-methoxypyridin-3-yl)phenyl)piperazin-1-yl)pyrimidine-2,4-diamine] | 165.32 | 
11 | Nc1ncc(N2CCN(c3cccc(-c4ncccn4)c3)CC2)c(N)n1 [Compound 103, 5-(4-(3-(pyrimidin-2-yl)phenyl)piperazin-1-yl)pyrimidine-2,4-diamine] |  | hDHFR pIC50-DHFR primary assay ([4]; Table 11): 5.89; tgDHFR pIC50-DHFR primary assay [2]: 7.56
12 | Nc1nc(N)c(N2CCN(c3ccccc3)CC2)c(CC2CC2)n1 [Compound 106] | 218.96 | 
13 | CCc1nc(N)nc(N)c1N1CCN(c2cccc(C)c2)CC1 [Compound 31, 6-ethyl-5-(4-(m-tolyl)piperazin-1-yl)pyrimidine-2,4-diamine] | 119.54 | 
14 | Nc1ncc(N2CCN(c3cccc(-c4cccc(F)c4)c3)CC2)c(N)n1 [Compound 64, 5-(4-(3′-fluoro-[1,1′-biphenyl]-3-yl)piperazin-1-yl)pyrimidine-2,4-diamine] | 93.86 | 
15 | COc1ccc(N2CCN(c3cnc(N)nc3N)CC2)cc1 [Compound 114, 5-(4-(4-methoxyphenyl)piperazin-1-yl)pyrimidine-2,4-diamine] |  | Average DHFR selectivity (h/tc) [1]: 144
16 | CCCc1nc(N)nc(N)c1N1CCN(c2ncc(C)cn2)CC1 [Compound 59, 5-(4-(5-methylpyrimidin-2-yl)piperazin-1-yl)-6-propylpyrimidine-2,4-diamine] | 118.81 | 
17 | Nc1ncc(N2CCN(c3cccc(Br)c3)CC2)c(N)n1 [Compound 11, 5-(4-(3-bromophenyl)piperazin-1-yl)pyrimidine-2,4-diamine] | 37.15 | 
18 | CCc1nc(N)nc(N)c1N1CCN(c2ccncc2)CC1 [Compound 36, 6-ethyl-5-(4-(pyridin-4-yl)piperazin-1-yl)pyrimidine-2,4-diamine] | 110.92 | 
19 | CC1CN(c2cccc(-c3ccccc3)c2)CCN1c1cnc(N)nc1N (stereo not drawn) [Compound 27, 5-(4-([1,1′-biphenyl]-3-yl)-2-methylpiperazin-1-yl)pyrimidine-2,4-diamine] | 218.78 | 
20 | CCc1nc(N)nc(N)c1N1CCN(c2ccccc2)CC1 [Compound 28, 6-ethyl-5-(4-phenylpiperazin-1-yl)pyrimidine-2,4-diamine] | 235.78 | 
21 | CCCc1nc(N)nc(N)c1N1CCN(c2ccccn2)CC1 [Compound 56, 6-propyl-5-(4-(pyridin-2-yl)piperazin-1-yl)pyrimidine-2,4-diamine] | 269.78 | 

Row | SMILES | Average DHFR selectivity (h/tg) ([2]; hDHFR IC50/tgDHFR IC50) | also measured
22 | CNc1ncc(-c2cccc(N3CCN(c4cnc(N)nc4N)CC3)c2)cn1 [Compound 97, 5-(4-(3-(2-(methylamino)pyrimidin-5-yl)phenyl)piperazin-1-yl)pyrimidine-2,4-diamine] | 131.33 | 
23 | CN(C)c1ncc(-c2cccc(N3CCN(c4cnc(N)nc4N)CC3)c2)cn1 [Compound 96, 5-(4-(3-(2-(dimethylamino)pyrimidin-5-yl)phenyl)piperazin-1-yl)pyrimidine-2,4-diamine] | 115.48 | 
24 | Nc1ncc(N2CCN(c3cccc(-c4ccncn4)c3)CC2)c(N)n1 [Compound 102, 5-(4-(3-(pyrimidin-4-yl)phenyl)piperazin-1-yl)pyrimidine-2,4-diamine] |  | Average DHFR selectivity (h/tc) [1]: 103
25 | Nc1ncc(N2CCN(c3ccc(Cl)cc3)CC2)c(N)n1 [Compound 6, 5-(4-(4-chlorophenyl)piperazin-1-yl)pyrimidine-2,4-diamine] |  | hDHFR pIC50-DHFR primary assay ([4]; Table 11): 5.96; tgDHFR pIC50-DHFR primary assay [2]: 7.34
26 | Nc1ncc(N2CCN(c3cccc(-c4cnc(C5CC5)nc4)c3)CC2)c(N)n1 [Compound 86, 5-(4-(3-(2-cyclopropylpyrimidin-5-yl)phenyl)piperazin-1-yl)pyrimidine-2,4-diamine] |  | Average DHFR selectivity (h/tb)*-DHFR IC50 [3]: 330
27 | Nc1ncc(N2CCN(c3cccc(-c4cncnc4)c3)CC2)c(N)n1 [Compound 74, 5-(4-(3-(pyrimidin-5-yl)phenyl)piperazin-1-yl)pyrimidine-2,4-diamine] |  | hDHFR pIC50-DHFR primary assay ([4]; Table 11): 5.84; tgDHFR pIC50-DHFR primary assay [2]: 8.32
28 | CC1CN(c2cnc(N)nc2N)CCN1c1cccc(-c2ccccc2)c1 (stereo not drawn) [Compound 26, 5-(4-([1,1′-biphenyl]-3-yl)-3-methylpiperazin-1-yl)pyrimidine-2,4-diamine] | 14.96 | 
29 | CCCc1nc(N)nc(N)c1N1CCN(c2ccc(OC)cn2)CC1 [Compound 60, 5-(4-(5-methoxypyridin-2-yl)piperazin-1-yl)-6-propylpyrimidine-2,4-diamine] | 149.75 | 
30 | Cc1cccc(N2CCN(c3cnc(N)nc3N)CC2)c1 [Compound 7, 5-(4-(m-tolyl)piperazin-1-yl)pyrimidine-2,4-diamine] |  | hDHFR pIC50-DHFR primary assay ([4]; Table 11): 5.22; tgDHFR pIC50-DHFR primary assay [2]: 7.12
31 | CCCc1nc(N)nc(N)c1N1CCC(c2ccccc2)CC1 [Compound 51, 5-(4-phenylpiperidin-1-yl)-6-propylpyrimidine-2,4-diamine] | 241.03 | 
32 | CCc1nc(N)nc(N)c1N1CCN(c2ccc(F)cn2)CC1 [Compound 44, 6-ethyl-5-(4-(5-fluoropyridin-2-yl)piperazin-1-yl)pyrimidine-2,4-diamine] | 71.23 | 
33 | Nc1ncc(N2CCN(c3cccc(C(F)(F)F)c3)CC2)c(N)n1 [Compound 3, 5-(4-(3-(trifluoromethyl)phenyl)piperazin-1-yl)pyrimidine-2,4-diamine] |  | hDHFR pIC50-DHFR primary assay ([4]; Table 11): 6.27; tgDHFR pIC50-DHFR primary assay [2]: 7.21
34 | Nc1ncc(N2CCN(c3cccc(C4CC4)c3)CC2)c(N)n1 [Compound 66, 5-(4-(3-cyclopropylphenyl)piperazin-1-yl)pyrimidine-2,4-diamine] |  | hDHFR pIC50-DHFR primary assay ([4]; Table 11): 5.79; tgDHFR pIC50-DHFR primary assay [2]: 7.54
35 | CCCc1nc(N)nc(N)c1N1CCN(c2ccc(F)cc2)CC1 [Compound 52, 5-(4-(4-fluorophenyl)piperazin-1-yl)-6-propylpyrimidine-2,4-diamine] | 303.92 | 
36 | Nc1ncc(N2CCN(c3cccc(-c4ccnnc4)c3)CC2)c(N)n1 [Compound 73, 5-(4-(3-(pyridazin-4-yl)phenyl)piperazin-1-yl)pyrimidine-2,4-diamine] |  | hDHFR pIC50-DHFR primary assay ([4]; Table 11): 5.96; tgDHFR pIC50-DHFR primary assay [2]: 8.22
37 | Cc1nc(N)nc(N)c1N1CCN(c2ccccc2)CC1 [Compound 47, 6-methyl-5-(4-phenylpiperazin-1-yl)pyrimidine-2,4-diamine] | 84.63 | 
38 | Cc1ncc(-c2cccc(C3CCN(c4cnc(N)nc4N)CC3)c2)cn1 [Compound 94, 5-(4-(3-(2-methylpyrimidin-5-yl)phenyl)piperidin-1-yl)pyrimidine-2,4-diamine] |  | hDHFR pIC50-DHFR primary assay ([4]; Table 13): 6.49; tbDHFR pIC50-DHFR primary assay ([3]; Table 13, T. brucei DHFR): 9.05; Average DHFR selectivity (h/tb)*-DHFR IC50 [3]: 357
39 | CCc1nc(N)nc(N)c1N1CCN(c2cccc(OC)c2)CC1 [Compound 33, 6-ethyl-5-(4-(3-methoxyphenyl)piperazin-1-yl)pyrimidine-2,4-diamine] |  | Average DHFR selectivity (h/tg) [2]: 120.23
40 | CCc1nc(N)nc(N)c1N1CCN(c2ccccn2)CC1 [Compound 34, 6-ethyl-5-(4-(pyridin-2-yl)piperazin-1-yl)pyrimidine-2,4-diamine] | 158.49 | 
41 | CCc1ncc(-c2cccc(N3CCN(c4cnc(N)nc4N)CC3)c2)cn1 [Compound 95, 5-(4-(3-(2-ethylpyrimidin-5-yl)phenyl)piperazin-1-yl)pyrimidine-2,4-diamine] | 218.78 | Average DHFR selectivity (h/tb)*-DHFR IC50 [3]: 375
42 | N#Cc1cccc(-c2cccc(N3CCN(c4cnc(N)nc4N)CC3)c2)c1 [Compound 67, 3′-(4-(2,4-diaminopyrimidin-5-yl)piperazin-1-yl)-[1,1′-biphenyl]-3-carbonitrile] | 77.18 | 
